# How the values were obtained:
# [1] = biological target: T1, proMMP9(67-444;ΔFnII) (SEQ ID NO:5) (Homo sapiens, UniProt P14780, DEL216-390); test: ThermoFluor binding assay with proMMP9(67-444;ΔFnII); conditions: pH 7.0
# T1 construct: start methionine (N); made in house; host or cells: E. coli BL21(DE3) RIL
# T1 sequence (P14780 with tags, fused parts or gaps DEL216-390): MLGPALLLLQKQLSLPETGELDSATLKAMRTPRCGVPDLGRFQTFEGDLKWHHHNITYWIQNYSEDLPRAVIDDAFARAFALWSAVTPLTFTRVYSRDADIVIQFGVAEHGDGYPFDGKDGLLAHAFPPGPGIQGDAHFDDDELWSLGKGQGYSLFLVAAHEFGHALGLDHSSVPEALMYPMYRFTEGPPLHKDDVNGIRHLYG
# Summary of the method: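 Thermal shift binding with 3.5 μM proMMP9(67-444;ΔFnII) and 50 μM 1,8-ANS in 50 mM HEPES pH 7.0, 100 mM NaCl, 2.5 mM MgCl2, 300 μM CaCl2, 0.001% Tween-20, with serially diluted compound. Heated 40 to 90° C at 1° C/min; fluorescence-derived Tm fitted using DSC/ThermoFluor thermodynamic parameters.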
# [2] = biological target: proMMP13(1-268) (SEQ ID NO:7) (Homo sapiens, UniProt P45452); test: ProMMP13/Plasmin P126 Activation Assay; assay type: biochemical; parameters: 6xHis (C); made in house; host or cells: HEK293 (transient, secreted); conditions: 8 nM proMMP13, 16 nM plasmin, 40 min 37° C.
# Method: On the day of assay, proMMP13(1-268) (SEQ ID NO:7) purified from HEK293 cells and plasmin were diluted to 160 nM and 320 nM, respectively, in assay buffer. The reaction volume was 50 μL. […] The plate was sealed and incubated for 40 min at 37° C. […] Plasmin was not reactive towards P-126 substrate under these conditions.
structure (smiles),measurement,setting,value
"Cc1nc(C)c(-c2csc(Nc3cc(S(N)(=O)=O)ccc3OC(C)C)n2)s1 [Example 64, 3-(2′,4′-Dimethyl-[4,5′]bithiazolyl-2-ylamino)-4-isopropoxy-benzenesulfonamide.HBr]",Kd,[1],260 nM
same,IC50,[2],3.3 µM

# — patent publication US20120129842A1, “BISTHIAZOLE INHIBITORS OF PRO-MATRIX METALLOPROTEINASE ACTIVATION” (priority 2010, published 2012)
